Consider 26 molecules from patent US10590129B2 (Incozen Therapeutics Pvt. Ltd., priority 2010, dated 2020).

Bounds are passed on as bounds.

The test system of series [1] is MKN-45 cells. Put plainly: Inhibition of MKN-45 proliferation (MTT). Format: cell-based, human. The conditions noted are these: for inhibition at 0.1 µM / inhibition at 1 µM: Homo sapiens, MKN-45, MKN-45 proliferation. The method in brief:
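High-Met human gastric adenocarcinoma MKN-45 cells plated in complete growth medium, compounds added next day and viability read 3 days later by MTT dye reduction.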

The molecule `O=C(NCC(F)(F)F)c1ccc(-c2ccc3nnn(Cc4ccc5ncccc5c4)c3n2)cc1F` [Ex 93, 2-Fluoro-4-(3-(quinolin-6-ylmethyl)-3H-[1,2,3]triazolo[4,5-b]pyridin-5-yl)-N-(2,2,2-trifluoroethyl)benzamide] had a melting point of 194 to 196 °C. This molecule also yielded an inhibition at 0.1 µM in series [1] (0.1 μM) of 25 to 50%. Moreover, the inhibition at 1 µM in series [1] (1 μM) was 25 to 50%.
In the case of `COCCNC(=O)c1ccc(-c2ccc3nnn(Cc4ccc5ncccc5c4)c3n2)cc1F` [Ex 94, 2-Fluoro-N-(2-methoxyethyl)-4-(3-(quinolin-6-ylmethyl)-3H-[1,2,3]triazolo[4,5-b]pyridin-5-yl)benzamide], the melting point lay in the range of 162 to 164 °C. The inhibition at 0.1 µM in series [1] (0.1 μM) is 50 to 75%. The inhibition at 1 µM in series [1] (1 μM) is less than 25%.
The like results for `CC(C)NS(=O)(=O)c1ccc(-c2ccc3nnn(Cc4ccc5ncccc5c4)c3n2)cc1` [Ex 95, N-Isopropyl-4-(3-(quinolin-6-ylmethyl)-3H-[1,2,3]triazolo[4,5-b]pyridin-5-yl)benzenesulfonamide] were, in that order, 154 to 156 °C, less than 25% and 50 to 75%.
The like results for `CN(C)c1cccc(-c2ccc3nnn(Cc4ccc5ncccc5c4)c3n2)c1` [Ex 96, N,N-Dimethyl-3-(3-(quinolin-6-ylmethyl)-3H-[1,2,3]triazolo[4,5-b]pyridin-5-yl)aniline] were, in that order, 124 to 126 °C, less than 25% and less than 25%.
Turning to `CC(C)CNC(=O)c1ccc(-c2ccc3nnn(Cc4ccc5ncccc5c4)c3n2)cc1F` [Ex 97, 2-Fluoro-N-isobutyl-4-(3-(quinolin-6-ylmethyl)-3H-[1,2,3]triazolo[4,5-b]pyridin-5-yl)benzamide], the melting point was in the range of 158 to 160 °C. Moreover, in series [1] (0.1 μM), the inhibition at 0.1 µM was in the range of 25 to 50%. The same molecule showed an inhibition at 1 µM in series [1] (1 μM) of 25 to 50%.
For `O=C(NC1CCCC1)c1ccc(-c2ccc3nnn(Cc4ccc5ncccc5c4)c3n2)cc1F` [Ex 98, N-Cyclopentyl-2-fluoro-4-(3-(quinolin-6-ylmethyl)-3H-[1,2,3]triazolo[4,5-b]pyridin-5-yl)benzamide], the melting point fell in the range of 166 to 168 °C. In series [1] (0.1 μM), the inhibition at 0.1 µM was 25 to 50%. In addition, the inhibition at 1 µM in series [1] (1 μM) is 50 to 75%.
For `CC(C)NC(=O)c1ccc(-c2ccc3nnn(Cc4ccc5ncccc5c4)c3n2)cc1F` [Ex 99, 2-Fluoro-N-isopropyl-4-(3-(quinolin-6-ylmethyl)-3H-[1,2,3]triazolo[4,5-b]pyridin-5-yl)benzamide], the melting point lay in the range of 177 to 179 °C. The molecule also came in with an inhibition at 0.1 µM in series [1] (0.1 μM) of 50 to 75%. In series [1] (1 μM), this molecule came in with an inhibition at 1 µM of 50 to 75%.
In the case of `CCCNC(=O)c1ccc(-c2ccc3nnn(Cc4ccc5ncccc5c4)c3n2)cc1Cl` [Ex 102, 2-Chloro-N-propyl-4-(3-(quinolin-6-ylmethyl)-3H-[1,2,3]triazolo[4,5-b]pyridin-5-yl)benzamide], the melting point lay in the range of 128 to 130 °C. This molecule also came in with an inhibition at 0.1 µM in series [1] (0.1 μM) of 50 to 75%. In series [1] (1 μM), the inhibition at 1 µM lay within 75 to 100%.
As for `CNC(=O)c1ccc(-c2ccc3nnn(C(C)(C)c4ccc5ncccc5c4)c3n2)cc1F` [Ex 103, 2-Fluoro-N-methyl-4-(3-(2-(quinolin-6-yl)propan-2-yl)-3H-[1,2,3]triazolo[4,5-b]pyridin-5-yl)benzamide], the melting point is 171 to 173 °C. This molecule also displayed an inhibition at 0.1 µM in series [1] (0.1 μM) of less than 25%.
In turn, `O=C(NC1CCC1)c1ccc(-c2ccc3nnn(Cc4ccc5ncccc5c4)c3n2)cc1F` [Ex 104, N-Cyclobutyl-2-fluoro-4-(3-(quinolin-6-ylmethyl)-3H-[1,2,3]triazolo[4,5-b]pyridin-5-yl)benzamide] showed a melting point of 171 to 174 °C. For the same molecule, the inhibition at 0.1 µM in series [1] (0.1 μM) lay in the range of 50 to 75%. For the same molecule, the inhibition at 1 µM in series [1] (1 μM) was 75 to 100%.
The like results for `CCCNC(=O)c1ccc(-c2ccc3nnn(C(C)(C)c4ccc5ncccc5c4)c3n2)cc1F` [Ex 105, 2-Fluoro-N-propyl-4-(3-(2-(quinolin-6-yl)propan-2-yl)-3H-[1,2,3]triazolo[4,5-b]pyridin-5-yl)benzamide] were, in that order, 162 to 164 °C, less than 25% and less than 25%.
The matching figures for `CC(C)(c1ccc2ncccc2c1)n1nnc2ccc(-c3ccc(C(=O)NC4CC4)c(F)c3)nc21` [Ex 106, N-Cyclopropyl-2-fluoro-4-(3-(2-(quinolin-6-yl)propan-2-yl)-3H-[1,2,3]triazolo[4,5-b]pyridin-5-yl)benzamide]: 156 to 159 °C, less than 25% and 75 to 100%.
As to `CCNC(=O)c1ccc(-c2ccc3nnn(C(C)(C)c4ccc5ncccc5c4)c3n2)cc1F` [Ex 107, N-Ethyl-2-fluoro-4-(3-(2-(quinolin-6-yl)propan-2-yl)-3H-[1,2,3]triazolo[4,5-b]pyridin-5-yl)benzamide], the melting point lay within 132 to 135 °C. The inhibition at 0.1 µM in series [1] (0.1 μM) is less than 25%.
`CNC(=O)c1ccc(-c2ccc3nnn(Cc4ccc5ncccc5c4)c3n2)cc1Cl` [Ex 109, 2-Chloro-N-methyl-4-(3-(quinolin-6-ylmethyl)-3H-[1,2,3]triazolo[4,5-b]pyridin-5-yl)benzamide] showed a melting point of 227 to 230 °C. In series [1] (0.1 μM), this molecule had an inhibition at 0.1 µM of 75 to 100%.
As for `CONC(=O)c1ccc(-c2ccc3nnn(Cc4ccc5ncccc5c4)c3n2)cc1F.Cl` [Ex 110, 2-Fluoro-N-methoxy-4-(3-(quinolin-6-ylmethyl)-3H-[1,2,3]triazolo[4,5-b]pyridin-5-yl)benzamide hydrochloride], the melting point is 145 to 147 °C. Further, in series [1] (MKN-45 proliferation, 0.1 μM), the “Inhibition (% Inhibition of MKN-45 proliferation)” value is given as “B (B = ≥50-<75%)”. Besides, in series [1] (MKN-45 proliferation, 1 μM), the “% inhibition @ 1 uM” value is “B (B = ≥50-<75%)”.
As for `O=C(Nc1nccs1)c1ccc(-c2ccc3nnn(Cc4ccc5ncccc5c4)c3n2)cc1F` [Ex 111, 2-Fluoro-4-(3-(quinolin-6-ylmethyl)-3H-[1,2,3]triazolo[4,5-b]pyridin-5-yl)-N-(thiazol-2-yl)benzamide], the melting point was in the range of 204 to 206 °C. The molecule also gave an inhibition at 0.1 µM in series [1] (0.1 μM) of less than 25%. Also, the inhibition at 1 µM in series [1] (1 μM) was 75 to 100%.
The matching figures for `O=C(NCCC(=O)N1CCCC1)c1ccc(-c2ccc3nnn(Cc4ccc5ncccc5c4)c3n2)cc1F` [Ex 114, 2-Fluoro-N-(3-oxo-3-(pyrrolidin-1-yl)propyl)-4-(3-(quinolin-6-ylmethyl)-3H-[1,2,3]triazolo[4,5-b]pyridin-5-yl)benzamide]: 151 to 153 °C, 50 to 75% and 50 to 75%.
The matching figures for `O=C(NO)c1ccc(-c2ccc3nnn(Cc4ccc5ncccc5c4)c3n2)cc1F` [Ex 115, 2-Fluoro-N-hydroxy-4-(3-(quinolin-6-ylmethyl)-3H-[1,2,3]triazolo[4,5-b]pyridin-5-yl)benzamide]: 180 to 182 °C, less than 25% and 75 to 100%.
For the molecule `CC(C)NC(=O)c1ccc(-c2ccc3nnn(Cc4ccc5ncccc5c4)c3n2)cc1` [Ex 116, N-Isopropyl-4-(3-(quinolin-6-ylmethyl)-3H-[1,2,3]triazolo[4,5-b]pyridin-5-yl)benzamide], the melting point was 181 to 183 °C. This molecule yielded an inhibition at 0.1 µM in series [1] (0.1 μM) of less than 25%. In series [1] (1 μM), this molecule had an inhibition at 1 µM of 75 to 100%.
The matching figures for `O=C(NCCC(=O)N1CCCCC1)c1ccc(-c2ccc3nnn(Cc4ccc5ncccc5c4)c3n2)cc1F` [Ex 117, 2-Fluoro-N-(3-oxo-3-(piperidin-1-yl)propyl)-4-(3-(quinolin-6-ylmethyl)-3H-[1,2,3]triazolo[4,5-b]pyridin-5-yl)benzamide]: 109 to 111 °C, 50 to 75% and 75 to 100%.
The matching figures for `CCNC(=O)Nc1ccc(-c2ccc3nnn(Cc4ccc5ncccc5c4)c3n2)cc1` [Ex 118, 1-Ethyl-3-(4-(3-(quinolin-6-ylmethyl)-3H-[1,2,3]triazolo[4,5-b]pyridin-5-yl)phenyl)urea]: 193 to 196 °C, less than 25% and 75 to 100%.
`O=C(NCCC(=O)N1CCOCC1)c1ccc(-c2ccc3nnn(Cc4ccc5ncccc5c4)c3n2)cc1F` [Ex 120, 2-Fluoro-N-(3-morpholino-3-oxopropyl)-4-(3-(quinolin-6-ylmethyl)-3H-[1,2,3]triazolo[4,5-b]pyridin-5-yl)benzamide] returned a melting point of 212 to 215 °C. The same molecule yielded an inhibition at 0.1 µM in series [1] (0.1 μM) of 75 to 100%. Also, the inhibition at 1 µM in series [1] (1 μM) lay within 25 to 50%.
Molecule `O=C(Nc1nc[nH]n1)c1ccc(-c2ccc3nnn(Cc4ccc5ncccc5c4)c3n2)cc1Cl` [Ex 122, 2-chloro-4-(3-(quinolin-6-ylmethyl)-3H-[1,2,3]triazolo[4,5-b]pyridin-5-yl)-N-(1H-1,2,4-triazol-3-yl)benzamide] yielded a melting point of 286 to 288 °C. This molecule also came in with an inhibition at 0.1 µM in series [1] (0.1 μM) of less than 25%. In addition, the inhibition at 1 µM in series [1] (1 μM) was less than 25%.
Consider `O=C(NCCCN1CCCCC1)c1ccc(-c2ccc3nnn(Cc4ccc5ncccc5c4)c3n2)cc1F` [Ex 124, 2-Fluoro-N-(3-(piperidin-1-yl)propyl)-4-(3-(quinolin-6-ylmethyl)-3H-[1,2,3]triazolo[4,5-b]pyridin-5-yl)benzamide], for which the melting point is 135 to 137 °C. Besides, the inhibition at 0.1 µM in series [1] (0.1 μM) was 75 to 100%. Besides, in series [1] (1 μM), the inhibition at 1 µM was 50 to 75%.
Take `c1cnc2ccc(Cn3cnc4ccc(-c5cn[nH]c5)nc43)cc2c1` [Ex 147, 6-((5-(1H-Pyrazol-4-yl)-3H-imidazo[4,5-b]pyridin-3-yl)methyl)quinoline]: the melting point lay in the range of 214 to 216 °C. The molecule also had an inhibition at 1 µM in series [1] (1 μM) of less than 25%.
For the molecule `Cn1cc(-c2ccc3ncn(Cc4ccc5ncccc5c4)c3n2)cn1` [Ex 148, 6-((5-(1-Methyl-1H-pyrazol-4-yl)-3H-imidazo[4,5-b]pyridin-3-yl)methyl)quinoline], the melting point lay in the range of 150 to 152 °C. For the same molecule, the inhibition at 1 µM in series [1] (1 μM) was less than 25%.

The melting point is the temperature, or range, at which the solid turns liquid. By inhibition is commonly meant the drop in the measured response relative to a control, in per cent. A higher inhibition goes with a strong effect.
